Values after ≈ are worked out from the molar mass of the structure shown. Where two headings read alike, the source gives them in different places. Square brackets hold non-standard residues; d marks the D form. Peptide text beside a SMILES is read from it. Tle = CC(C)(C)[C@H](N)C(=O)O; Orn = NCCC[C@H](N)C(=O)O; Abu = CC[C@H](N)C(=O)O
Legend:
[1] = test system: Acinetobacter baumannii (ATCC 19606); type: cell-based
Experimental: (§1) The antibacterial efficacy of peptides was assessed using the broth microdilution method in accordance with Clinical and Laboratory Standards Institute (CLSI) guidelines (M07-A10, 2015 [33]). The minimum inhibitory concentrations (MICs) were determined against Escherichia coli (ATCC 25922), Klebsiella pneumoniae (ATCC 33495), Pseudomonas aeruginosa (ATCC 27853), Acinetobacter baumannii (ATCC 19606), and Staphylococcus aureus (ATCC 29213 and ATCC USA300). Bacterial suspensions were standardised to 5 × 10^4 colony-forming units (CFUs)/well in cation-adjusted Mueller–Hinton broth (CAMHB). Peptides were dissolved in 25% DMSO and serially diluted two-fold across 96-well plates, reaching final concentrations ranging from 256 to 0.125 µg/mL. The wells were inoculated, ensuring a final volume of 100 µL per well, with a DMSO concentration of 1% (v/v) to minimise solvent interference. […] Vancomycin was used as the positive control for S. aureus. Polymyxin B served as the positive control for Gram-negative bacteria. CAMHB with 1% (v/v) DMSO (without peptides) was used as the negative control. All experiments were performed in triplicate (n = 3). Bacterial isolates were stored in tryptone soy broth with 30% glycerol at −80 °C for long-term preservation.

[2] = test system: Escherichia coli (ATCC 25922); type: cell-based
Experimental: as §1

[3] = test system: Klebsiella pneumoniae (ATCC 33495); type: cell-based
Experimental: as §1

[4] = test system: Pseudomonas aeruginosa (ATCC 27853); type: cell-based
Experimental: as §1

[5] = test system: human red blood cells; test: Haemolysis assay; type: cell-based; settings: 1% human RBC suspension in HEPES-buffered saline pH 7.4, pooled from three donors, 0.125 to 256 μg/mL, 1 h, 37 °C, absorbance 540 and 410 nm, triplicate (n = 3)
Experimental: To evaluate haemolytic activity, fresh human blood was collected from three unrelated healthy volunteers to ensure donor variability. Red blood cells (RBCs) were separated by centrifugation at 3000 rpm for 5 min at 4 °C, followed by washing in HEPES-buffered saline (HBS; 150 mM NaCl, 5 mM HEPES-NaOH, pH 7.4). The samples were pooled, mixed, and all experiments were performed in triplicate to enhance reproducibility. Blood samples were used within 48 h of collection to preserve erythrocyte integrity. A 1% RBC suspension in HBS (200 μL) was distributed into 96-well plates, and peptide solutions (100 μL) were added to reach final concentrations ranging from 0.125 to 256 μg/mL. After a 1 h incubation at 37 °C, the plates were centrifuged (3000 rpm, 5 min, 4 °C), and 80 μL of each supernatant was transferred to a fresh microplate. Absorbance readings were taken at 540 nm and 410 nm to assess protein content and haemoglobin release, respectively. HBS served as a negative control and 1% Triton X-100 as a positive control (n = 3).

[6] = Analytical RP-HPLC retention time as measure of hydrophobicity; type: physicochemical; settings: measure of global hydrophobicity, Phenomenex Kinetex 2.6 µm C18 (150 × 4.6 mm), 0.7 mL/min, ACN/TFA (100:0.0008) and water/TFA (100:0.001)
Experimental: Peptide purification was carried out via preparative RP-HPLC on an Agilent 1260 Infinity II system (Santa Clara, CA, USA) equipped with a 21.2 × 150 mm Agilent ZORBAX Eclipse Plus C18 column, operating at a flow rate of 25 mL/min. The mobile phase consisted of acetonitrile containing 0.0008% trifluoroacetic acid (v/v) as the organic phase and water with 0.001% TFA as the aqueous phase. […] Analytical HPLC analysis was performed on a Hewlett-Packard Series 1100 instrument using a Phenomenex (Torrance, CA, USA) Kinetex C18 column (150 mm × 4.6 mm, 2.6 µm particle size), under identical solvent conditions, to confirm purity.
HRMS of peptide 1. […] HRMS of peptide 2. […] HRMS of peptide 3. […] HRMS of peptide 4. […] HRMS of peptide 5. […] HRMS of peptide 6. […] HRMS of peptide 7. […] HRMS of peptide 8. […] HRMS of peptide 9. […] HRMS of peptide 10. […] HRMS of peptide 11. […] HRMS of peptide 12. […] HRMS of peptide 13. […] HRMS of peptide 14. […] HRMS of peptide 15. […] HRMS of peptide 16. […] HRMS of peptide 17. […] HRMS of peptide 18. […] HRMS of peptide 19.

[7] = broth microdilution in CAMHB, 5 × 10^4 CFU/well, 1% DMSO, 37 °C, 16–20 h, 256 to 0.125 µg/mL, triplicate (n = 3)

| Structure (SMILES) | MIC A. baumannii ATCC 19606 [1, 7] [µg/mL] | MIC E. coli ATCC 25922 [2, 7] [µg/mL] | MIC K. pneumonia ATCC 33495 [3, 7] [µg/mL] | MIC P. aeruginosa ATCC 27853 [4, 7] [µg/mL] | HC50 (50% haemolytic concentration) [5] [µg/mL] | MIC A. baumannii ATCC 19606 ([1]; ATCC 19606) [µg/mL] | MIC E. coli ATCC 25922 ([2]; ATCC 25922) [µg/mL] | MIC K. pneumonia ATCC 33495 ([3]; ATCC 33495) [µg/mL] | RP-HPLC retention time tR [6] [min] | MIC P. aeruginosa ATCC 27853 ([4]; ATCC 27853) [µg/mL] |
| --- | --- | --- | --- | --- | --- | --- | --- | --- | --- | --- |
| CC(C)C[C@@H]1NC(=O)[C@H](CCCN)NC(=O)[C@H](C(C)(C)C)NC(=O)[C@@H]2CCCN2C(=O)[C@@H](Cc2ccccc2)NC(=O)[C@H](CC(C)C)NC(=O)[C@H](CCCN)NC(=O)[C@H](C(C)(C)C)NC(=O)[C@@H]2CCCN2C(=O)[C@@H](Cc2ccccc2)NC1=O [Peptide 13] (cyclo(L[dF]P[Tle][Orn]L[dF]P[Tle][Orn])) | 32 (≈ 27.4 µM) | 32 (≈ 27.4 µM) | 256 (≈ 219 µM) | 128 (≈ 109 µM) | 6.26 ± 0.35 |  |  |  |  |  |
| CC[C@@H]1NC(=O)[C@@H]2CCCN2C(=O)[C@@H](Cc2ccccc2)NC(=O)[C@H](CC(C)C)NC(=O)[C@H](CCCNC(=N)N)NC(=O)[C@H](C(C)C)NC(=O)[C@@H]2CCCN2C(=O)[C@@H](CCCNC(=N)N)NC(=O)[C@H](CC(C)C)NC(=O)[C@H](CCCN)NC1=O [Peptide 16] (cyclo([Abu][Orn]L[dR]PVRL[dF]P)) |  |  |  | 64 (≈ 54.3 µM) |  | 16 (≈ 13.6 µM) | 32 (≈ 27.2 µM) | 32 (≈ 27.2 µM) | 16.24 |  |
| CC[C@@H]1NC(=O)[C@@H]2CCCN2C(=O)[C@@H](CCCNC(=N)N)NC(=O)[C@H](CC(C)C)NC(=O)[C@H](CCCN)NC(=O)[C@H](C(C)C)NC(=O)[C@@H]2CCCN2C(=O)[C@@H](Cc2ccccc2)NC(=O)[C@H](CC(C)C)NC(=O)[C@H](CCCNC(=N)N)NC1=O [Peptide 17] (cyclo([Abu]RL[dF]PV[Orn]L[dR]P)) |  |  |  | 64 (≈ 54.3 µM) |  | 16 (≈ 13.6 µM) | 32 (≈ 27.2 µM) | 32 (≈ 27.2 µM) | 16.32 |  |
| CC[C@@H]1NC(=O)[C@@H]2CCCN2C(=O)[C@@H](CCCNC(=N)N)NC(=O)[C@H](CC(C)C)NC(=O)[C@H](CCCN)NC(=O)[C@H](CC)NC(=O)[C@@H]2CCCN2C(=O)[C@@H](Cc2ccccc2)NC(=O)[C@H](CC(C)C)NC(=O)[C@H](CCCNC(=N)N)NC1=O [Peptide 18] (cyclo([Abu][Orn]L[dR]P[Abu]RL[dF]P)) |  |  |  |  |  | 32 (≈ 27.5 µM) | 64 (≈ 55 µM) | 64 (≈ 55 µM) | 16.03 | 128 (≈ 110 µM) |
| CC(C)C[C@@H]1NC(=O)[C@H](CCCN)NC(=O)[C@H](C(C)(C)C)NC(=O)[C@@H]2CCCN2C(=O)[C@@H](Cc2ccccc2)NC(=O)[C@H](CC(C)C)NC(=O)[C@H](CCCN)NC(=O)[C@H](C(C)(C)C)NC(=O)[C@@H]2CCCN2C(=O)[C@@H](CCCNC(=N)N)NC1=O [Peptide 19] (cyclo(L[dF]P[Tle][Orn]L[dR]P[Tle][Orn])) |  |  |  |  |  | 4 (≈ 3.39 µM) | 16 (≈ 13.6 µM) | 32 (≈ 27.2 µM) | 17.15 | 16 (≈ 13.6 µM) |

Source: publication PMC12108418, “Broad-Spectrum Gramicidin S Derivatives with Potent Activity Against Multidrug-Resistant Gram-Negative ESKAPE Pathogens” (Antibiotics, 2025)
